From patent US20240158418A1 (C4 Therapeutics, Inc., priority 2021, published 2024)

Target: T1, G1 to S Phase Transition 1 (GSPT1) (Homo sapiens, UniProt P15170)
T1 construct: Endogenous expression of GSPT1 in 293T cells was determined by addition of N-terminal HiBiT tag; host or cells: 293T (CRISPR-Cas9 HiBiT knock-in)
Assay: GSPT1 degradation, HiBiT-tagged GSPT1 in 293T cells
Assay type: cell-based
Conditions: 6 hours, up to 10 WV
Experimental: Endogenous expression of GSPT1 in 293T cells was determined by addition of N-terminal HiBiT tag to the 293T cell line (ATCC CRL-3216) using CRISPR-Cas9. Briefly, test compound was added to 384-well plates at a top concentration of 10 μM with 11 points, half log titration in duplicates. 293T cells expressing HiBiT-tagged GSPT1 were seeded into the 384-well plates in DMEM medium containing 10% FBS at a cell density of 6000 cells per well. Cells treated in the absence of the test compound were the negative control and wells containing media only were the positive control. Following compound treatment, cells were incubated at 37° C. with 5% CO2 for 6 hr. HiBiT signal was determined using Nano-Glo™ HiBiT Lytic Assay System (Promega, N3050) and luminescence was acquired on EnVision™ Multilabel Reader (PerkinElmer, Santa Clara, CA, USA). % GSPT1 remaining was determined by normalizing the signal with positive and negative controls on the same microtiter plate. Data in FIG. 8 are expressed as the mean±SD. Curve fit and IC50 determination was performed by 4 parametric regression analysis.

T1 sequence (Q96SW2 whole entry partner): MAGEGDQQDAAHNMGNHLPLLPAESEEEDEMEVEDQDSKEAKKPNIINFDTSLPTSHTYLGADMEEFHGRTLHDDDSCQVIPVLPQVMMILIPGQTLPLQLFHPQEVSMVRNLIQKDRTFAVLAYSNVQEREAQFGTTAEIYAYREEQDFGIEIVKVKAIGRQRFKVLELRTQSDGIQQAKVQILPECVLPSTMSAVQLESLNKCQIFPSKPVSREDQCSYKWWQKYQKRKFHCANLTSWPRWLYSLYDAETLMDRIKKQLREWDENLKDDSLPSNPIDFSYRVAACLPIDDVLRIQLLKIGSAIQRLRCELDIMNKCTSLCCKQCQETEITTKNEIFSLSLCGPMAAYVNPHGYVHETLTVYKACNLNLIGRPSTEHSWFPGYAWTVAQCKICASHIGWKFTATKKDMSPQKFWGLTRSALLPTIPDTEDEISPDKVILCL
T1 sequence (Q16531 whole entry partner): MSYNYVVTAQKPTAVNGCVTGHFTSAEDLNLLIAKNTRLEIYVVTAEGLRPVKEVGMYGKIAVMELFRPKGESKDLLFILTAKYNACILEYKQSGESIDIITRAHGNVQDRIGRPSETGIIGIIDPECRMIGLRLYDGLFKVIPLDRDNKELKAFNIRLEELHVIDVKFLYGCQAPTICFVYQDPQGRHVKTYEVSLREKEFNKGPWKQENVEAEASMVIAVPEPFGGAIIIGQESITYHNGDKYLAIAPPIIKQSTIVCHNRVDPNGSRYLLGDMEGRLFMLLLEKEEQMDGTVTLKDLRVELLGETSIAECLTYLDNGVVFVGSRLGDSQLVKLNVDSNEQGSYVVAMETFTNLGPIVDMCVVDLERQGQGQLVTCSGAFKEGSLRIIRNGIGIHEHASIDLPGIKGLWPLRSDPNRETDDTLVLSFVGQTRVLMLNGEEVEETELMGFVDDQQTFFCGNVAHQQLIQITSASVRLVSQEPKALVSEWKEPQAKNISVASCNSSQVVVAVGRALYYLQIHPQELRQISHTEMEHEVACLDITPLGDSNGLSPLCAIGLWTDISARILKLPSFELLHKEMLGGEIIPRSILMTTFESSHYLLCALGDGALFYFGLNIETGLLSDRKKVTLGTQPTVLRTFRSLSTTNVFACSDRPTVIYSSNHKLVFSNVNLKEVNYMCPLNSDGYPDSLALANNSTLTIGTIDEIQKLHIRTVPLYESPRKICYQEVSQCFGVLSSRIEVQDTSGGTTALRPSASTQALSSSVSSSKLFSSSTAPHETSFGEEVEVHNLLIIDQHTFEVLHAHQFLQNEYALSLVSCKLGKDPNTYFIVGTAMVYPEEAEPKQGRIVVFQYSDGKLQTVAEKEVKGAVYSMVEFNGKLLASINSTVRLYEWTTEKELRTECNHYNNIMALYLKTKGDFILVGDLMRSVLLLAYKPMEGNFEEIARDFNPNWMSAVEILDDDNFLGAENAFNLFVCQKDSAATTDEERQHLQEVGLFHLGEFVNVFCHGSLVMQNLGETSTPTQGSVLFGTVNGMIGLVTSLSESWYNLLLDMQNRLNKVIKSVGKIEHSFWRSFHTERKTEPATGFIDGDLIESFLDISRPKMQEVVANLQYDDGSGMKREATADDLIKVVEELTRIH
T1 sequence (P15170 whole entry): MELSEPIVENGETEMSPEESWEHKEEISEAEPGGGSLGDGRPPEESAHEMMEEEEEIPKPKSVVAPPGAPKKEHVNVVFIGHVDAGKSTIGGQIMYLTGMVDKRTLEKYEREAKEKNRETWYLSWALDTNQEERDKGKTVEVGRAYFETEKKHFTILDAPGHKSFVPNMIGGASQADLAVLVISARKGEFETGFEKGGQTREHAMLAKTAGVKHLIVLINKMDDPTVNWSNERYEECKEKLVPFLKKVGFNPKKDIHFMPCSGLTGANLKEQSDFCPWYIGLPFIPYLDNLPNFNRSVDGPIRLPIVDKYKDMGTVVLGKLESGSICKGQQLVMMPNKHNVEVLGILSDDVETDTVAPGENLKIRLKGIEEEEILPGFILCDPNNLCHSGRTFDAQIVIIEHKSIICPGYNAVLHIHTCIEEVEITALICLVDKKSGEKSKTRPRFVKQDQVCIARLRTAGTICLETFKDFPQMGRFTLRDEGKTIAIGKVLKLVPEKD

Compound: O=C1CC[C@H](Nc2ccc(N3CCC(O)(CC(=O)N4CC5(C4)CN(c4ccc(-c6cc(F)c7c(c6)C(=O)N(C(C(=O)Nc6nccs6)c6ncn8c6CCC8)C7)cc4)C5)CC3)c(F)c2)C(=O)N1 (stereo partly drawn) [Compound 1, 2-(6,7-dihydro-5H-pyrrolo[1,2-c]imidazol-1-yl)-2-[6-[4-[2-[2-[1-[4-[[(3S)-2,6-dioxo-3-piperidyl]amino]-2-fluoro-phenyl]-4-hydroxy-4-piperidyl]acetyl]-2,6-diazaspiro[3.3]heptan-6-yl]phenyl]-4-fluoro-1-oxo-isoindolin-2-yl]-N-thiazol-2-yl-acetamide]
- GSPT1 degradation (% GSPT1 remaining): no significant effect
